Test results from US20240124483A1, “Methods for the Treatment of Fibrotic Disease” (SHY Therapeutics, LLC, priority 2021, published 2024).

Assays:
ERK1/2 phosphorylation = assay: Western ERK1/2 Cell-Based Phosphorylation Assay; conditions: Homo sapiens, PANC-1, 6 hours, EGF 1.5 ng/ml, read-out: % inh of ERK1/2 phosphorylation in PANC-1
Experimental: Cell lines: Human tumor-derived pancreatic cancer cell line Panc-1 was purchased from American Type Culture Collection and grown in complete DMEM-High Glucose, supplemented with penicillin (100 U/mL), streptomycin (100 μg/mL), and 10% heat-inactivated FBS at 37° C. in a humidified incubator with 5% CO2.
(§1) Method: Cells were plated at 350000 cells/well density in a 12-well plate, allowed 3 hours to adhere to the plate, then starved in the appropriate medium in the presence of 0.5% FBS overnight. The small molecules to be tested were added to the cells in the final concentration of 10 μM in the presence of 0.3% DMSO for 6 hours incubation at 37° C. For IC50 value determination, serial dilutions of compounds were added to cells under the same conditions. Next, cells were stimulated with 1.5 ng/ml EGF for 15 minutes then cells were lysed with lysis buffer containing 1% Triton X-100, EDTA, and Halt™ Protease & Phosphatase Inhibitor Cocktail (Thermo Scientific). Protein concentration was assessed by BCA protein assay (Thermo Scientific). Phosphorylation level of ERK1/2 was determined by western blot.
(§2) Western blot protocol: Equal amounts of protein (15-50 μg) were separated by SDS-PAGE and transferred to nitrocellulose membranes (Invitrogen by Thermo Fisher Scientific). The membrane was stained with Ponceau S Stain (Boston BioProducts) to verify uniform protein loading. Membranes were blocked with 10% milk and phosphorylation levels of ERK1/2 were assessed by incubating overnight at 4° C. with anti-phospho-p44/42 (Thr202/Tyr204) antibody (Cell Signaling) followed by HRP-conjugated secondary antibody (Jackson Immunoresearch, West Grove, PA). Bands were incubated in Amersham ECL Prime Western Blotting Detection Reagent (GE Healthcare) and visualized using the ChemiDoc MP imaging system (Bio-Rad).

AKT phosphorylation = assay: Western AKT Cell-Based Phosphorylation Assay; conditions: Homo sapiens, PANC-1, 6 hours, EGF 1.5 ng/ml, read-out: % inh of AKT phosphorylation in PANC-1
Experimental: Human tumor-derived pancreatic cancer cell line Panc-1 was purchased from American Type Culture Collection and grown in complete DMEM-High Glucose supplemented with penicillin (100 U/mL), streptomycin (100 μg/mL), and 10% heat-inactivated FBS at 37° C. in a humidified incubator with 5% CO2.
as §1, with “C.” for “C. For IC50 value determination, serial dilutions of compounds were added to cells under the same conditions.”, “Akt” for “ERK1/2”
as §2, with “Akt” for “ERK1/2”, “anti-phospho-Akt (Ser473)” for “anti-phospho-p44/42 (Thr202/Tyr204)”

SMILES | inhibition at 10 µM (ERK1/2 phosphorylation) [%] | inhibition at 10 µM (AKT phosphorylation) [%]
COC1CCCN(c2nc(-c3nccn3C)nc3sc(-c4ccn(C(C)C)n4)c(C)c23)C1 (racemic) [Compound 14, rac-6-(1-Isopropyl-1H-pyrazol-3-yl)-4-(3-methoxypiperidin-1-yl)-5-methyl-2-(1-methyl-1H-imidazol-2-yl)thieno[2,3-d]pyrimidine] | 76 to 100 | 46 to 75
COCC1CN(c2nc(-c3nccn3C)nc3sc(-c4ccn(C(C)C)n4)c(C)c23)CCO1 (racemic) [Compound 15, 4-(6-(1-Isopropyl-1H-pyrazol-3-yl)-5-methyl-2-(1-methyl-1H-imidazol-2-yl)thieno[2,3-d]pyrimidin-4-yl)-2-(methoxymethyl)morpholine] | 46 to 75 | 76 to 100
COCCO[C@H]1CC[C@@H](Nc2nc(-c3nccn3C)nc3sc(-c4ccn(C(C)C)n4)c(C)c23)C1 (racemic) [Compound 20, rac-6-(1-Isopropyl-1H-pyrazol-3-yl)-N-((1R,3S)-3-(2-methoxyethoxy)cyclopentyl)-5-methyl-2-(1-methyl-1H-imidazol-2-yl)thieno[2,3-d]pyrimidin-4-amine] | 46 to 75 | 26 to 45
Cc1c(-c2ccn(C(C)C)n2)sc2nc(-c3nccn3C)nc(NCC3COCCN3C)c12 (racemic) [Compound 24, rac-6-(1-Isopropyl-1H-pyrazol-3-yl)-5-methyl-2-(1-methyl-1H-imidazol-2-yl)-N-((4-methylmorpholin-3-yl)methyl)thieno[2,3-d]pyrimidin-4-amine] | 0 | 0
Cc1c(-c2ccn(C(C)C)n2)sc2nc(-c3nccn3C)nc(NCC3CN(C)CCO3)c12 (racemic) [Compound 25, rac-6-(1-Isopropyl-1H-pyrazol-3-yl)-5-methyl-2-(1-methyl-1H-imidazol-2-yl)-N-((4-methylmorpholin-2-yl)methyl)thieno[2,3-d]pyrimidin-4-amine] | 0 | 1 to 25
Cc1c(-c2ccn(C(C)C)n2)sc2nc(-c3nccn3C)nc(NCC3CCCO3)c12 (racemic) [Compound 26, rac-6-(1-Isopropyl-1H-pyrazol-3-yl)-5-methyl-2-(1-methyl-1H-imidazol-2-yl)-N-((tetrahydrofuran-2-yl)methyl)thieno[2,3-d]pyrimidin-4-amine] | 0 | 0
COCC1(OC)CCN(c2nc(-c3nccn3C)nc3sc(-c4ccn(C(C)C)n4)c(C)c23)C1 (racemic) [Compound 27, rac-6-(1-Isopropyl-1H-pyrazol-3-yl)-4-(3-methoxy-3-(methoxymethyl)pyrrolidin-1-yl)-5-methyl-2-(1-methyl-1H-imidazol-2-yl)thieno[2,3-d]pyrimidine] | 1 to 25 | 26 to 45
COCCn1ccc(-c2sc3nc(-c4nccn4C)nc(NC[C@H]4CC[C@H]4COC)c3c2C)n1 (racemic) [Compound 38, rac-6-(1-(2-Methoxyethyl)-1H-pyrazol-3-yl)-N-(((1S,2R)-2-(methoxymethyl)cyclobutyl)methyl)-5-methyl-2-(1-methyl-1H-imidazol-2-yl)thieno[2,3-d]pyrimidin-4-amine] | 46 to 75 | 0
COCCn1ccc(-c2sc3nc(-c4nccn4C)nc(N[C@@H]4CC[C@H](OC)C4)c3c2C)n1 (racemic) [Compound 39, rac-N-((1R,3S)-3-Methoxycyclopentyl)-6-(1-(2-methoxyethyl)-1H-pyrazol-3-yl)-5-methyl-2-(1-methyl-1H-imidazol-2-yl)thieno[2,3-d]pyrimidin-4-amine] | 1 to 25 | 76 to 100
COc1cccc(-c2sc3nc(-c4nccn4C)nc(N[C@@H]4CC[C@@H](OC)C4)c3c2-c2ccccc2)c1F (racemic) [Compound 41, 6-(2-Fluoro-3-methoxyphenyl)-N-((1R,3R)-3-methoxycyclopentyl)-2-(1-methyl-1H-imidazol-2-yl)-5-phenylthieno[2,3-d]pyrimidin-4-amine] | 76 to 100 | 76 to 100
